Reference: patent US20260022118A1, “HETEROCYCLIC COMPOUNDS AS NRAS INHIBITORS” (Board of Regents, The University of Texas System, priority 2023, published 2026)
Where two headings read alike, the source gives them in different places.

Assays:
NRAS G12D C118S = NRAS G12D C118S (Homo sapiens (Human), UniProt P01111, C118S/G12D); assay: NRas G12D Surface Plasmon Resonance (SPR) binding assay; conditions: Avi-tagged biotinylated NRAS G12D C118S on streptavidin chip, 25° C., 1:1 kinetic or steady-state fit
Experimental: NRas G12D Surface Plasmon Resonance (SPR) Binding Assay
This Example illustrates that exemplary compounds and salts thereof described herein bind to NRAS G12D as measured by surface plasmon resonance (SPR).
Two liters of 1.03× running buffer (1.03×HBS-P+pH 7.4, containing 0.0103 M HEPES, 0.1545 M NaCl, 0.0515% v/v Surfactant P20 (Cytiva®, BR100671); 5.15 mM MgCl2 (Invitrogen, AM9530G); 0.515 mM TCEP, pH 8.0 (GoldBio®, TCEP25)) was prepared and filter sterilized using a 0.22 μm filter. A 1-L volumetric flask was filled partway with this buffer. A 30-mL volumetric flask was used to measure 30 mL of 100% DMSO (Sigma Aldrich®, 41639-100ML) which was added to the 1-L flask. The solution in the 1-L flask was brought up to 1 L with 1.03× buffer, resulting in a 1.0× assay running buffer containing 1.0×HBS-P+, 5 mM MgCl2, […], and 3% DMSO. Remaining 1.03× buffer was used for preparation of samples and immobilization running buffer.
Samples were prepared in a standard conical-bottomed 384-well microplate by adding 2 μL 10 mM DMSO cpd stock to each well, followed by 8 μL DMSO. A control compound was selected based off of its relatively “fast” kinetics that could be fitted by 1:1 kinetic fitting, as well as by steady-state fitting. Control wells for periodic injection to assess protein activity throughout the assay were also assembled, by diluting 10 mM compound 1:30 in DMSO, then adding 20 μL to the appropriate wells, such that the final concentration of compound would be 10 μM, and the final concentration of DMSO would be 3%. A Biomek™ FXP Laboratory Automation Workstation was used to stamp 20 μL DMSO into all sample wells—minus the control wells—according to the plate map, and then serially dilute 1:3 by mixing and aspirating 10 μL, delivering into the 20 μL of DMSO in the next well, resulting in 10-point serial dilution curves. A Biotek™ Multiflo EL406 Washer Dispenser was used to deliver 80 μL of 1.03× buffer to the compound plate. The plate was mixed 10× by FX, then a final dilution was performed by stamping 18 μL from the compound plate into a 384-well deep-well plate that had also been previously filled with 102 μL 1.03× buffer via the Multiflo. The solution in the deep-well plate was mixed 10× by FX, then sealed with a 384-well microplate foil from Cytiva® (Cytiva® BR100577) and placed on an orbital shaker for 30 minutes at 1000 RPM to ensure complete mixing of the DMSO solution in the buffer. A solvent correction curve was also prepared by making a 4% DMSO solution in 1.03× buffer and diluting in 1.03× buffer such that there were eight solutions of decreasing DMSO concentrations resulting in a high DMSO concentration of 4% and a low concentration of 2% DMSO.
Immobilization running buffer was prepared in a 200-mL volume by diluting 1.03× running buffer prepared above to 1.0×. A Cytiva® Streptavidin chip (Cytiva®, 29104992) was docked into a Biacore™ S200 instrument, and the instrument was then primed three times into the immobilization running buffer. A protein stock of Avi-tagged NRAS G12D C118S was prepared in-house and biotinylated using the Bulk BirA: BirA biotin-protein ligase bulk reaction kit from Avidity (Avidity®, Bulk BirA). Upon completion of the biotinylation reaction, Amicon® ultra 0.5-mL Centrifugal Filters with a MWCO of 3 k Da (Millipore® UFC500396) were used to reduce the free biotin concentration below 0.1 μM in the protein sample over the course of eight desalting cycles, according to the manufacturer's protocol. Resulting protein concentration was not measured directly as an accurate protein concentration is not required for immobilizing protein on the chip surface; however, a theoretical yield of ≤1.5 mg/mL was estimated based off of retained volumes during the desalting process. Reagents for immobilization were prepared as instructed in the Biacore™ 5200 Control Software Immobilization Wizard, including solutions of 1 M NaCl in 50 mM NaOH, and 1 M NaCl in 50 mM NaOH and 50% isopropyl alcohol. […]

[1] = tested on: THP-1 cells expressing G12D (NRAS G12D); assay: Inhibition of NRAS G12D-mediated phosphorylation of ERK (AlphaLISA p-ERK1/2) in THP-1 cells; assay type: cell-based; conditions: 2 hours incubation, HBSS with 0% or 10% FBS, p-ERK1/2 (Thr202/Tyr204) AlphaLISA, read-out: pERK THP-1 IC50
Procedure, shortened: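 THP-1 cells expressing NRAS G12D, seeded in HBSS with 0% or 10% FBS, were exposed to test compound (1% DMSO final) for 2 h. p-ERK1/2 (Thr202/Tyr204) read by AlphaLISA SureFire Ultra. IC50 from curves normalized to no-inhibitor (100%) and 1 μM trametinib (0%) controls.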

NRAS G12D C118S, sequence (P01111 whole entry G12D/C118S): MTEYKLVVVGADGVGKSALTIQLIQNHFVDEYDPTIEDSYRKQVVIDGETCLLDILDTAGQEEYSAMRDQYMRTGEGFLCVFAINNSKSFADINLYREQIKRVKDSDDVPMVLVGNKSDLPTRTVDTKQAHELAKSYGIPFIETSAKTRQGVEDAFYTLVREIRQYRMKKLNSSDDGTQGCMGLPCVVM

| Compound | Kd (NRAS G12D C118S) | IC50 ([1]; Homo sapiens, THP-1, 2 h) | IC50 [1] |
| --- | --- | --- | --- |
| C#Cc1c(F)ccc2cc(O)cc(-c3ncc4c([C@H]5[C@@H]6CNC[C@@H]65)cn(C5CC5)c4c3F)c12 [Example 5, 4-(3-((1R,5S,6s)-3-azabicyclo[3.1.0]hexan-6-yl)-1-cyclopropyl-7-fluoro-1H-pyrrolo[3,2-c]pyridin-6-yl)-5-ethynyl-6-fluoronaphthalen-2-ol] | 0.0101 µM | 0.269 µM | – |
| C#Cc1c(F)ccc2cc(O)cc(-c3ncc4c(N5CC6CCC(C5)N6)nn(CC)c4c3F)c12 [Example 8, 4-(3-(3,8-diazabicyclo[3.2.1]octan-3-yl)-1-ethyl-7-fluoro-1H-pyrazolo[4,3-c]pyridin-6-yl)-5-ethynyl-6-fluoronaphthalen-2-ol] | 1.92 µM | 11.1 µM | – |
| C#Cc1c(F)ccc2cc(O)cc(-c3ncc4c(N5CC6CCC(C5)N6)nn(C)c4c3F)c12 [Example 13, 4-(3-(3,8-diazabicyclo[3.2.1]octan-3-yl)-7-fluoro-1-methyl-1H-pyrazolo[4,3-c]pyridin-6-yl)-5-ethynyl-6-fluoronaphthalen-2-ol] | 0.891 µM | 6.74 µM | – |
| C#Cc1c(F)ccc2cc(O)cc(-c3ncc4c([C@H]5[C@@H]6CNC[C@@H]65)c(C)n(C)c4c3F)c12 [Example 21, 4-(3-((1R,5S,6s)-3-azabicyclo[3.1.0]hexan-6-yl)-7-fluoro-1,2-dimethyl-1H-pyrrolo[3,2-c]pyridin-6-yl)-5-ethynyl-6-fluoronaphthalen-2-ol] | 1.84 µM | 13 µM | – |
| C#Cc1c(F)ccc2cc(O)cc(-c3ncc4c([C@H]5[C@@H]6CNC[C@@H]65)nn(C(C)C)c4c3F)c12 [Example 24, 4-(3-((1R,5S,6r)-3-azabicyclo[3.1.0]hexan-6-yl)-7-fluoro-1-isopropyl-1H-pyrazolo[4,3-c]pyridin-6-yl)-5-ethynyl-6-fluoronaphthalen-2-ol] | 0.824 µM | 10.7 µM | – |
| C#Cc1c(F)ccc2cc(O)cc(-c3ncc4c(N5CC6CCC5CN6)nn(C)c4c3F)c12 (centres unmarked) [Example 26, 4-(3-(2,5-diazabicyclo[2.2.2]octan-2-yl)-7-fluoro-1-methyl-1H-pyrazolo[4,3-c]pyridin-6-yl)-5-ethynyl-6-fluoronaphthalen-2-ol] | 0.0738 µM | 2.07 µM | – |
| C#Cc1c(F)ccc2cc(O)cc(-c3ccc4c([C@H]5[C@@H]6CNC[C@@H]65)nn(C)c4c3F)c12 [Example 27, 4-(3-((1R,5S,6r)-3-azabicyclo[3.1.0]hexan-6-yl)-7-fluoro-1-methyl-1H-indazol-6-yl)-5-ethynyl-6-fluoronaphthalen-2-ol] | 3.18 µM | 9.56 µM | – |
| C#Cc1c(F)ccc2cc(O)cc(-c3ncc4c(N5CC6CC5CN6)nn(C)c4c3F)c12 (centres unmarked) [Example 28, 4-(3-(2,5-diazabicyclo[2.2.1]heptan-2-yl)-7-fluoro-1-methyl-1H-pyrazolo[4,3-c]pyridin-6-yl)-5-ethynyl-6-fluoronaphthalen-2-ol] | 1.1 µM | 11.9 µM | – |
| C#Cc1c(F)ccc2cc(O)cc(-c3c(F)cc4c([C@H]5[C@@H]6CNC[C@@H]65)cn(C)c4c3F)c12 [Example 29, 4-(3-((1R,5S,6s)-3-azabicyclo[3.1.0]hexan-6-yl)-5,7-difluoro-1-methyl-1H-indol-6-yl)-5-ethynyl-6-fluoronaphthalen-2-ol] | 0.965 µM | 3.1 µM | – |
| C#Cc1c(F)ccc2cc(O)cc(-c3ncc4c(N5C[C@@H]6CC[C@H]5CN6)nn(C)c4c3F)c12 [Example 30, 4-(3-((1S,4S)-2,5-diazabicyclo[2.2.2]octan-2-yl)-7-fluoro-1-methyl-1H-pyrazolo[4,3-c]pyridin-6-yl)-5-ethynyl-6-fluoronaphthalen-2-ol] | 0.0519 µM | 1.19 µM | – |
| C#Cc1c(F)ccc2cc(O)cc(-c3ncc4c(N5CC6CCCC(C5)N6)nn(C)c4c3F)c12 [Example 31, 4-[3-(3,9-diazabicyclo[3.3.1]nonan-3-yl)-7-fluoro-1-methyl-pyrazolo[4,3-c]pyridin-6-yl]-5-ethynyl-6-fluoro-naphthalen-2-ol] | 3.43 µM | 18.1 µM | – |
| C#Cc1c(F)ccc2cc(O)cc(-c3ncc4c(N5CC(N(C)C)C5)nn(C)c4c3F)c12 [Example 33, 4-[3-[3-(dimethylamino)azetidin-1-yl]-7-fluoro-1-methyl-pyrazolo[4,3-c]pyridin-6-yl]-5-ethynyl-6-fluoro-naphthalen-2-ol] | 8.75 µM | > 50 µM | – |
| C#Cc1c(F)ccc2cc(O)cc(-c3ncc4c(N5CC6CC(C5)N6)nn(C)c4c3F)c12 [Example 34, 4-[3-(3,6-diazabicyclo[3.1.1]heptan-3-yl)-7-fluoro-1-methyl-pyrazolo[4,3-c]pyridin-6-yl]-5-ethynyl-6-fluoro-naphthalen-2-ol] | 0.613 µM | 5.98 µM | – |
| C#Cc1c(F)ccc2cc(O)cc(-c3ncc4c(N5CC6CCCC5CN6)nn(C)c4c3F)c12 (centres unmarked) [Example 36, 4-[3-(6,8-diazabicyclo[3.2.2]nonan-6-yl)-7-fluoro-1-methyl-pyrazolo[4,3-c]pyridin-6-yl]-5-ethynyl-6-fluoro-naphthalen-2-ol] | 4.03 µM | 12.8 µM | – |
| C#Cc1c(F)ccc2cc(O)cc(-c3ncc4c(c(C)cn4C4=CC5CCC4CN5)c3F)c12 (centres unmarked) [Example 38, 4-[1-(2-azabicyclo[2.2.2]oct-5-en-5-yl)-4-fluoro-3-methyl-pyrrolo[2,3-c]pyridin-5-yl]-5-ethynyl-6-fluoro-naphthalen-2-ol] | 3.99 µM | 18.3 µM | – |
| C#Cc1c(F)ccc2cc(O)cc(-c3ncc4c(c(C)cn4C4CC5CCC4CN5)c3F)c12 (centres unmarked) [Example 39, 4-[1-(2-azabicyclo[2.2.2]octan-5-yl)-4-fluoro-3-methyl-pyrrolo[2,3-c]pyridin-5-yl]-5-ethynyl-6-fluoro-naphthalen-2-ol] | 0.435 µM | 4.82 µM | – |
| C#Cc1c(F)ccc2cc(O)cc(-c3ncc4c(c(C)cn4C4[C@H]5CNC[C@@H]45)c3F)c12 (stereo partly drawn) [Example 40, 4-[1-[(1R,5S)-3-azabicyclo[3.1.0]hexan-6-yl]-4-fluoro-3-methyl-pyrrolo[2,3-c]pyridin-5-yl]-5-ethynyl-6-fluoro-naphthalen-2-ol] | 1.13 µM | > 10 µM | – |
| C#Cc1c(F)ccc2cc(O)cc(-c3ncc4c(C5=CC6CCC5CN6)nn(C)c4c3F)c12 (centres unmarked) [Example 42, 4-[3-(2-azabicyclo[2.2.2]oct-5-en-5-yl)-7-fluoro-1-methyl-pyrazolo[4,3-c]pyridin-6-yl]-5-ethynyl-6-fluoro-naphthalen-2-ol] | 2.98 µM | > 10 µM | – |
| C#Cc1c(F)ccc2cc(O)cc(-c3ncc4c(C5CC6CCC5CN6)nn(C)c4c3F)c12 (centres unmarked) [Example 44, 4-[3-(2-azabicyclo[2.2.2]octan-5-yl)-7-fluoro-1-methyl-pyrazolo[4,3-c]pyridin-6-yl]-5-ethynyl-6-fluoro-naphthalen-2-ol] | 0.201 µM | – | 6.74 µM |
